# Test results as given in patent publication US10882860B2, “Treatment of osteoarthritis” (Samumed, LLC, priority 2015, dated 2021).
# What was measured:
# [1] = system: Wnt activity (Sp5-Luc reporter, SW480 colon carcinoma cells); assay: Sp5-Luc Wnt reporter gene assay; format: cell-based; settings: Homo sapiens, FIG. 14
# Excerpt: The compound of Formula (I) was screened for Wnt activity. The screening assay is described as follows. Reporter cell lines were generated by stably transducing cancer cell lines (e.g., colon cancer) or primary cells (e.g., IEC-6 intestinal cells) with a lentiviral construct that included a Wnt-responsive promoter driving expression of the firefly luciferase gene.
# SW480 colon carcinoma cells were transduced with a lentiviral vector expressing luciferase with a human Sp5 promoter consisting of a sequence of eight TCF/LEF binding sites. SW480 cells stably expressing the Sp5-Luc reporter gene and a hygromycin resistant gene were selected by treatment with 150 μg/mL of hygromycin for 7 days. These stably transduced SW480 cells were expanded in cell culture and used for all further screening activities. […] Following incubation, 20 μL of BrightGlo luminescence reagent (Promega) was added to each well of the 384-well assay plates. The plates were placed on an orbital shaker for 2 min and then luminescence was quantified using the Envision (Perkin Elmer) plate reader. Readings were normalized to DMSO-only treated cells, and normalized activities were utilized for EC50 calculations using the dose-response log (inhibitor) vs. response—variable slope (four parameters) nonlinear regression feature available in GraphPad Prism 5.0 (or Dotmatics).
# [2] = system: rats that underwent ACLT combined with medial meniscectomy (MMx); assay: Efficacy of suspension in rat ACLT + pMMx model (OARSI score); format: in vivo; settings: for OARSI score: vehicle 4.43
# Experimental: The efficacy of the compound of Formula (I) on increasing cartilage thickness was determined in rats that underwent anterior cruciate ligament transection (ACLT) combined with medial meniscectomy (MMx).
# Female rats (10-12 weeks old) were subjected to surgical severing of the anterior cruciate, medial collateral and medial meniscotibial ligaments (ACLT+pMMx). One-week post-surgery, after cartilage was allowed to degenerate, the rats were injected intra-articular (IA) with a single dose of a suspension of the compound of Formula (I) (0.1 μg or 0.3 μg or 1 μg). On Days 30, 60, and 90 after injection, joint cartilage, bone and plasma was isolated. Compound from these tissues was extracted using acetonitrile-methanol (70:30) and analyzed for concentrations using LC-MS.
# 13 weeks after the surgery (12 weeks post-IA injection), knees were isolated, fixed in 10% formalin, decalcified, embedded in paraffin, and sectioned. Sections were stained with Safranin O-Fast Green and histologically evaluated by two blinded observers based on OARSI scoring system (Pritzker et al. (2006) Osteoarthr. Cartil. 14:13-29). The OARSI score measures cartilage matrix loss, fissures, subchondral bone remodeling and bone cyst formation.
# [3] = design: species or system beagle dogs; settings: dog, in vivo
# Experimental: The local toxicology of Form 1 of the compound of Formula (I) in dogs was studied. The compound of Formula (I) (Form 1) was administered via single or multiple (9 times) intra-articular (IA) injections as a suspension composition in beagle dogs to evaluate local toxicity.
# After IA injection, the right stifle joint was histologically evaluated for inflammation, cartilage health, bone density, etc. Toxicology was evaluated immediately after a single or multiple (3 or 9 once-monthly) IA injections.
# The NOAEL for the compound of Formula (I) in this study was considered to be 116 μg/knee.
structure (smiles),measurement,setting,value
CC(C)CC(=O)Nc1cncc(-c2ccc3[nH]nc(-c4nc5c(-c6cccc(F)c6)cncc5[nH]4)c3c2)c1 [compound of Formula (I)],EC50,[1],2 nM
same,OARSI score,"[2]; rat ACLT+pMMx, single IA 0.1 μg suspension, 12 weeks post-injection",3.13
same,OARSI score,"[2]; rat ACLT+pMMx, single IA 0.3 μg suspension, 12 weeks post-injection",2.15
same,total OARSI score (against vehicle),"[2]; rat ACLT+pMMx, 0.1, 0.3 or 1 μg, 12 weeks post-injection",dose-dependent reduction
same,knee histology (Safranin O-Fast Green),"[2]; rat ACLT+pMMx, single IA injection, 12 weeks post-injection","Increased cartilage thickness, decreased fissures, and subchondral bone remodeling"
same,cartilage in safranin O-stained knee section vs control knee,"[2]; rat, 0.3 μg, after 12 weeks, FIG. 23B",increased cartilage
same,NOAEL,[3],116 μg/knee
